Measurements published in patent US10239923B2, “Specific amyloid beta binding peptides and the use of same for treating and diagnosing alzheimer's dementia” (Forschungszentrum Juelich GmbH, priority 2015, dated 2019).
Square brackets hold non-standard residues; d marks the D form. Peptide text beside a SMILES is read from it.

Tests used:
[1] = system: PC-12 cells; assay: MTT reduction test, Aβ1-42-induced cell toxicity; format: cell-based; conditions: batch containing only Mosd1, 24 hours, 37° C.
Description: The samples were placed in the culture medium of the cells and were incubated over 24 hours with the cells at 37° C. The viability of the cells was then determined on the basis of an MTT test. Here, a metabolic reactant was supplied to the cells, which reactant could be converted by metabolically active cells (living cells). Formazan crystals are the product of this conversion and can be dissolved. The coloration of the medium after solubilization corresponds to the conversion rate of the reactant and therefore the viability of the cells. Untreated cells (medium, white chequered pattern) served as living control, and the proportion of vital cells was defined as 100%. The values of the other batches were normalized to this value.

[2] = target: Aβ1-42 species of different size (Homo sapiens, UniProt P05067); assay: Density gradient centrifugation, tris-tricine SDS gel and silver staining of Aβ1-42 species; format: biochemical
Description: The batch was then incubated either with or without addition of peptide for a further 40 minutes and was then placed on an iodixanol density gradient. The gradient was then centrifuged, wherein the contents of the sample (Aβ1-42 species of different size) diffused within the gradient in accordance with their size and shape. The gradient was fractionated after centrifugation into 15 fractions (1-15), and the first 14 individual fractions were applied to a tris-tricine SDS gel. The contents per fraction were separated electrophoretically. […] The batch was then incubated either without (A) or with addition of different concentrations of Mosd1 (B=10 μM Mossd1; C=20 μM Mosd1; D=40 μM Mosd1; E=80 μM Mosd1) for a further 40 minutes and was then placed on an iodixanol density gradient. The gradient was then centrifuged, wherein the contents of the sample (Aβ1-42 species of different size) diffused within the gradient in accordance with their size and shape. The gradient was fractionated after centrifugation (1-15), and the individual fractions were applied to a tris-tricine SDS gel. The contents per fraction were separated electrophoretically.

[3] = system: Neuro-2a cells stably transfected with human APP695; assay: Influence on APP-expressing cells; format: cell-based, murine; conditions: incubation with 10 μM or 100 μM Mosd1
Description: FIG. 9: The murine neuroblastoma cell line Neuro-2a serves as a model for neuronal cells and is thus suitable for analyzing the symptoms of AD. […] In this way, the influence of naturally occurring Aβ1-42 species can be examined directly in neuronal cells. In the experiment, Neuro-2a cells were cultivated without APP parallel to those with the APP transfection. […] By incubation with 10 μM or 100 μM Mosd1, however, this pathological phenotype can be reversed, and the cells develop in accordance with the physiological phenotype corresponding to wild-type Neuro-2a cells. This means that the cell number increases and the cells accumulate, have a polygonal shape and form numerous cell contact points and spurs (middle and right-hand image).

[4] = target: T1, Aβ1-42 monomers versus Aβ1-42 oligomers and fibrils (biotinylated, D-enantiomeric, immobilized) (Homo sapiens, UniProt P05067); assay: Monoclonal phage ELISA; format: binding
T1 construct: biotinylated, D-enantiomeric Aβ1-42 monomers
Text: The specificity of the peptide results from the difference in % of the absorption values for the target molecule or the bait (for example A beta monomer) and the normalized absorption values for the competitors (for example A beta oligomers and fibrils) in the monoclonal phage ELISA.
The absorption values then constitute the affinity of individual phage clones for a particular immobilized A beta species. Here, the specificity is not dependent on the strength of the affinity, but instead only on the difference of the affinities between the species. […] The terms “competitors” and “target molecule” or “bait” are defined as specified below.
A method for normalizing the obtained values should therefore be performed. From all absorption values of the individual phage clone in the monoclonal phage ELISA, the values of the phage antibodies tested for cross-reaction can be used as background. This occurs in accordance with the previously immobilized species. The signal values of the phage antibody from the reaction trays with immobilized Aβ1-42 oligomers for this purpose can be removed from the signal values of the individual phage clone from the reaction trays with immobilized Aβ1-42 oligomers. A similar process is then carried out for Aβ1-42 monomers. In this way, a possible background signal of the phage antibody can initially be calculated from the signals of the individual phage clone. […] Only in this way is an equal interpretation of the results particularly in respect of the assessment of the specificity of the individual phage clone possible (see FIG. 2).
The affinity of individual phage clones with respect to the target molecule and the competitors was examined by means of ELISA. For this purpose, all three species were immobilized in biotinylated form on a polystyrene surface at streptavidin bound thereon. Since, during the panning rounds, oligomers and fibrils were added at the same time as competitors, these two species were immobilized in the monoclonal phage ELISA, likewise mixed. […] The streptavidin-coated microtiter plates were pre-washed as specified by the manufacturer. […] For immobilization, 100 μl were used per reaction tray and were incubated for 15 minutes at room temperature. After having washed the entire plate(s) twice with 150 μl 1×TBS per reaction tray, a blocking step with 150 μl 1×TBS/0.1% (v/v) Tween-20/1% (w/v) BSA was performed for an hour at room temperature. Three washing steps with 150 μl 1×TBS/0.1% (v/v) Tween-20 then followed per reaction tray. The amplified individual phage clones were mixed 1:1 with 1× TBS/1% (w/v) BSA. The antibody 6E10 was diluted 1:10,000 in 1×TBS/0.1% (v/v) Tween-20. […] After washing five times with 150 μl 1×TBS/0.1% (v/v) Tween-20 per reaction tray, 200 μl 1×TBS/0.1% (v/v) Tween-20 were placed in each reaction tray, and the plate(s) incubated for one hour at room temperature. The solutions were removed and replaced as follows: In all reaction trays that had been incubated previously with individual phage clone dilutions or the batch without phages, 100 μl of a phage antibody diluted 1:5,000 in 1×TBS/0.1% (v/v) Tween-20 were now added. The enzyme horseradish peroxidase (HRP) was coupled to this antibody and later served for the conversion of a substrate (TMB). […] At the same time, 100 μl of a second antibody diluted 1:1,000 in 1×TBS/0.1% (v/v) Tween-20 were now added to all reaction trays that had been previously incubated with the dilution of the 6E10 antibody, said second antibody being able to identify and bind to the 6E10 antibody originating from mice. This antibody is also HRP-coupled and thus allows a quantification of the binding of the first antibody to the immobilized target molecules or the plastics surface of the reaction tray. After one hour of incubation at room temperature, the plate(s) was/were washed 10 times with 150 μl 1×TBS/0.1% (v/v) Tween-20 per reaction tray. The signal was detected by adding the substrate 3,3′,5,5′-tetramethylbenzidine (TMB). […]

[5] = 80 μM Aβ1-42 pre-incubated […], 40 μM peptide for 40 minutes

Chain of Aβ1-42 species of different size (P05067 672-713 limits assumed): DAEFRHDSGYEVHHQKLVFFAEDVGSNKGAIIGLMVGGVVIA
T1 sequence (P05067 672-713): as the sequence (P05067 672-713 limits assumed) above

CSCC[C@@H](NC(=O)[C@@H](Cc1c[nH]cn1)NC(=O)[C@@H](Cc1ccc(O)cc1)NC(=O)[C@@H](CO)NC(=O)[C@H](NC(=O)[C@@H](CC(C)C)NC(=O)[C@@H](Cc1ccc(O)cc1)NC(=O)[C@@H](CO)NC(=O)[C@H](N)Cc1ccc(O)cc1)[C@H](C)O)C(=O)N[C@@H](C(=O)N[C@H](Cc1c[nH]c2ccccc12)C(=O)N[C@H](CCCNC(=N)N)C(N)=O)C(C)C [Mosd1] (H-[dY][dS][dY][dL][dT][dS][dY][dH][dM][dV][dW][dR]-NH2)
viability of PC-12 cells, peptide alone [1]: no influence
oligomeric Aβ1-42 species (fractions 4-7) [2, 5]: reduce
proportions of high-molecular Aβ1-42 species (fractions 10-14) [2, 5]: increase
signal strength in fractions 1-2 (monomeric Aβ) ([2]; concentrations higher than 20 μM Mosd1): reduction of the signal strength
proportion of small Aβ1-42 species and toxic oligomers ([2]; higher concentrations, 40 μM and 80 μM Mosd1, 80 μM Aβ1-42): reduce the proportion of small Aβ1-42 species and toxic oligomers considerably
proportion of toxic oligomers (fractions 4-7) ([2]; lower concentrations, 10 μM and 20 μM Mosd1, 80 μM Aβ1-42): reduce the proportion of toxic oligomers
pathological phenotype of APP-expressing cells [3]: reversed
absorption values (signal strength) for monomeric Aβ1-42 ([4]; individual phage clone, absorption at 450 nm): highest absorption values for monomeric Aβ1-42 of all tested clones
Difference in signal strength between Aβ1-42 monomers (100%) and Aβ1-42 oligomers and fibrils ([4]; individual phage clones, species immobilized at 320 nM, absorption at 450 nm normalized with 6E10 control, higher = more monomer-specific): 71.989%
binding preference for monomeric Aβ1-42 over Aβ1-42 oligomers and fibrils or plastics surface ([4]; normalized absorption values at 450 nm): greatest difference in the absorption values for monomeric Aβ1-42 and oligomeric or fibrillar Aβ1-42
